Experimental data as given in PMC6167350, “Small-molecule AgrA inhibitors F12 and F19 act as antivirulence agents against Gram-positive pathogens” (Scientific Reports, 2018).

Experiments:
[1] = molecular target: AgrA (C-terminal DNA-binding domain, AgrA_C) (Staphylococcus epidermidis, UniProt Q8CNM5); experiment: microscale thermophoresis; also EMSA (F19 blocks P3 DNA binding)
[2] = molecular target: T1, AgrA (C-terminal DNA-binding domain, AgrA_C) (Staphylococcus aureus, UniProt P0A0I7, C199S); experiment: microscale thermophoresis (Alexa Fluor 647-labeled protein)
T1 sequence (P0A0I7 143-238 C199S): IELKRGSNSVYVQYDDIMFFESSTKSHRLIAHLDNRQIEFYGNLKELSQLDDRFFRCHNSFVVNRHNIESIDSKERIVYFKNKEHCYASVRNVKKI

| SMILES | Kd [1] | Kd [2] |
| --- | --- | --- |
| CCCCCCc1cc(C(=O)COc2ccc(C(C)C)cc2)c(O)cc1O [F19] | 2700 ± 700 nM | 2900 ± 400 nM |
| CCCCCCc1cc(C(=O)COc2ccc(F)cc2F)c(O)cc1O [F12] | – | 4500 ± 400 nM |
